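Values below derive from 48-hour exposures of cells grown in 96-well plates, with endpoints linearly interpolated between the two concentrations bracketing the appropriate inhibition level. The concentration for 50% growth inhibition is given as GI50.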 Calls of active or inactive are those of the source. Cut-off read from the data, not from the text of the source: active = GI50 up to about 1.1 µM and inactive = higher.
How the values were obtained:
Test in all cases: inhibition of tumour cell growth, NCI panel, 48 h
BT-549 = system: BT-549
OVCAR-4 = system: OVCAR-4
OVCAR-8 = system: OVCAR-8
OVCAR-5 = system: OVCAR-5
EKVX = system: EKVX
NCI-H23 = system: NCI-H23
MOLT-4 = system: MOLT-4
SK-MEL-2 = system: SK-MEL-2
KM12 = system: KM12
TK-10 = system: TK-10
HT-29 = system: HT-29
HL-60 = system: HL-60
MDA-N = system: MDA-N
K562 = system: K562
PC-3 = system: PC-3
HCT-15 = system: HCT-15
SF-539 = system: SF-539
SNB-19 = system: SNB-19
RPMI-8226 = system: RPMI-8226
RXF 393 = system: RXF 393

| SMILES | GI50 (BT-549) | GI50 (OVCAR-4) | GI50 (OVCAR-8) | GI50 (OVCAR-5) | GI50 (EKVX) | GI50 (NCI-H23) | GI50 (MOLT-4) | GI50 (SK-MEL-2) | GI50 (KM12) | GI50 (TK-10) | GI50 (HT-29) | GI50 (HL-60) | GI50 (MDA-N) | GI50 (K562) | GI50 (PC-3) | GI50 (HCT-15) | GI50 (SF-539) | GI50 (SNB-19) | GI50 (RPMI-8226) | GI50 (RXF 393) |
| --- | --- | --- | --- | --- | --- | --- | --- | --- | --- | --- | --- | --- | --- | --- | --- | --- | --- | --- | --- | --- |
| COc1cc2c(cc1OC)CN1CCc3ccccc3CC1C2 (stereo not given) | 31.3 µM (inactive) | 16.1 µM (inactive) | 44.1 µM (inactive) | > 100 µM (inactive) | 47.3 µM (inactive) | 31.9 µM (inactive) | 28.8 µM (inactive) | 34.3 µM (inactive) | 33.1 µM (inactive) | 13.7 µM (inactive) | 12.6 µM (inactive) | 27.2 µM (inactive) | 44.1 µM (inactive) | 32.9 µM (inactive) | 41.7 µM (inactive) | 39.4 µM | 34.4 µM (inactive) | 52 µM (inactive) |  |  |
| OCC(O)COCn1cc(Cn2ncc3c(O)ncnc32)nn1 (stereo not given) | > 100 µM (inactive) | > 100 µM (inactive) | > 100 µM (inactive) | > 100 µM (inactive) | > 100 µM (inactive) | > 100 µM (inactive) | > 100 µM (inactive) | > 100 µM (inactive) | > 100 µM (inactive) | > 100 µM (inactive) | > 100 µM (inactive) | > 100 µM (inactive) | > 100 µM (inactive) | > 100 µM (inactive) | > 100 µM (inactive) | > 100 µM | > 100 µM (inactive) | > 100 µM (inactive) | > 100 µM (inactive) |  |
| C[C@]12CC[C@H]3[C@@H](CCC4=CC(=O)CC[C@@]43C)[C@@H]1CC[C@@H]2C(=O)Nc1ccc([N+](=O)[O-])c(C(F)(F)F)c1 | 19.4 µM (inactive) | 15.3 µM (inactive) | 26.4 µM (inactive) | > 10 µM (inactive) | 13.4 µM (inactive) | > 10 µM (inactive) | 24.2 µM (inactive) | 17.5 µM (inactive) | 16 µM (inactive) | 19 µM (inactive) | 18.2 µM (inactive) | 39.4 µM (inactive) | > 10 µM (inactive) | 26.6 µM (inactive) | 19.6 µM (inactive) | 12 µM | 18.7 µM (inactive) | 18.5 µM (inactive) | 56.1 µM (inactive) |  |
| COc1ccc(NC(=S)c2ccc(CN3CCCCC3)s2)cc1 | 17 µM (inactive) | 29 µM (inactive) | 17.9 µM (inactive) | 16.4 µM (inactive) | 18.8 µM (inactive) | 12.5 µM (inactive) | 20.1 µM (inactive) | 19.4 µM (inactive) | 17.7 µM (inactive) |  | 5.46 µM (inactive) | 14.3 µM (inactive) | 18.5 µM (inactive) | 12.5 µM (inactive) | 25.6 µM (inactive) | 12.8 µM | 43.9 µM (inactive) | 21.3 µM (inactive) | 23.4 µM (inactive) |  |
| CN(C)CCCNC(CC#N)CCC#N (stereo not given) | > 10 µM (inactive) | > 10 µM (inactive) | > 10 µM (inactive) | > 10 µM (inactive) | > 10 µM (inactive) | > 10 µM (inactive) | > 10 µM (inactive) | > 10 µM (inactive) | > 10 µM (inactive) | > 10 µM (inactive) | > 10 µM (inactive) | > 10 µM (inactive) | > 10 µM (inactive) | > 10 µM (inactive) | > 10 µM (inactive) | > 10 µM | > 10 µM (inactive) | > 10 µM (inactive) |  | > 10 µM (inactive) |
| NC(=O)c1nnc2c(F)cccc2c1N | 58.9 µM (inactive) | > 100 µM (inactive) | > 100 µM (inactive) | > 100 µM (inactive) | > 100 µM (inactive) | > 100 µM (inactive) | > 100 µM (inactive) | > 100 µM (inactive) | > 100 µM (inactive) | > 100 µM (inactive) | > 100 µM (inactive) | > 100 µM (inactive) | 66.5 µM (inactive) | 55.1 µM (inactive) | > 100 µM (inactive) | 92 µM | > 100 µM (inactive) | > 100 µM (inactive) | > 100 µM (inactive) |  |
| CC(C)CCNC(=O)c1ccc(CNC(=O)/C=C/c2cccc(Oc3ccccc3)c2)cc1 | 60.1 µM (inactive) | 27.7 µM (inactive) | 25.9 µM (inactive) | > 100 µM (inactive) | 23.1 µM (inactive) | 34.3 µM (inactive) | > 100 µM (inactive) | 31.3 µM (inactive) | 44 µM (inactive) | 22.6 µM (inactive) | 30.5 µM (inactive) |  | 16.5 µM (inactive) | > 100 µM (inactive) | 46.2 µM (inactive) | 38.6 µM | 11.6 µM (inactive) | 24.5 µM (inactive) | 67.9 µM (inactive) | 18.6 µM (inactive) |
| C#C[C@]1(O)CC[C@H]2[C@@H]3CCC4=C/C(=N/OC(=O)c5cccc6c(=O)c7ccccc7[nH]c56)CCC4[C@H]3CC[C@@]21CC (stereo not given in full) | 17 µM (inactive) | 49.3 µM (inactive) | 19.8 µM (inactive) | > 100 µM (inactive) | 22.2 µM (inactive) | 26.4 µM (inactive) | 4.3 µM (inactive) | 32.4 µM (inactive) | 20.1 µM (inactive) | > 100 µM (inactive) | 8.28 µM (inactive) | 2.44 µM (inactive) | 26.4 µM (inactive) | 10.9 µM (inactive) | 18.5 µM (inactive) | 13.4 µM |  | 69.3 µM (inactive) | 1.37 µM (inactive) | 2.34 µM (inactive) |
| O=C(O)CN1CCNCCNCC1 | > 100 µM (inactive) | > 100 µM (inactive) | > 100 µM (inactive) | > 100 µM (inactive) | > 100 µM (inactive) |  | > 100 µM (inactive) | > 100 µM (inactive) | 59.6 µM (inactive) | > 100 µM (inactive) | > 100 µM (inactive) | 0.9 µM (active) | > 100 µM (inactive) | > 100 µM (inactive) | > 100 µM (inactive) | > 100 µM | > 100 µM (inactive) | > 100 µM (inactive) | > 100 µM (inactive) |  |
| Cc1cc(C)c(C)c(-n2[nH]c(=O)n(C)c2=O)c1C | > 100 µM (inactive) |  | > 100 µM (inactive) | > 100 µM (inactive) | > 100 µM (inactive) | > 100 µM (inactive) | > 100 µM (inactive) | > 100 µM (inactive) | > 100 µM (inactive) | > 100 µM (inactive) | > 100 µM (inactive) | > 100 µM (inactive) | > 100 µM (inactive) | > 100 µM (inactive) | > 100 µM (inactive) | > 100 µM | > 100 µM (inactive) | > 100 µM (inactive) | > 100 µM (inactive) |  |
| COC(=O)C1=CSC2(S1)C(C(=O)OC)=CSc1c2ss/c1=N\c1ccccc1 (stereo not given) | 2.74 µM (inactive) | 1.87 µM (inactive) | 1.81 µM (inactive) | 3.66 µM (inactive) | 4.59 µM (inactive) | 2.47 µM (inactive) | 0.714 µM (active) | 2 µM (inactive) | 2.68 µM (inactive) | 2.7 µM (inactive) | 2.48 µM (inactive) |  | 2.17 µM (inactive) | 2.7 µM (inactive) | 5.08 µM (inactive) | 1.74 µM | 1.38 µM (inactive) | 2.47 µM (inactive) | 0.497 µM (active) | 1.78 µM (inactive) |
| CC1(C)CC(O)C(C)(C)[C@@H](O)C1 (stereo not given in full) | > 100 µM (inactive) | > 100 µM (inactive) | > 100 µM (inactive) | > 100 µM (inactive) | > 100 µM (inactive) | > 100 µM (inactive) | > 100 µM (inactive) | > 100 µM (inactive) | > 100 µM (inactive) | > 100 µM (inactive) | > 100 µM (inactive) | > 100 µM (inactive) | > 100 µM (inactive) | > 100 µM (inactive) | > 100 µM (inactive) | > 100 µM | > 100 µM (inactive) | > 100 µM (inactive) |  | 28.7 µM (inactive) |
| CC1OC(OC2C(O)COC(OC3C(C)OC(OC4C(OC(=O)[C@]56CCC(C)(C)C[C@@H]5C5=CCC7[C@@]8(C)C[C@H](O)[C@H](OC9OC(CO)C(O)C(OC%10OC(CO)C(O)C(O)C%10O)C9O)[C@@](C)(CO)[C@@H]8CC[C@@]7(C)[C@]5(C)CC6)OCC(O)C4O)C(O)C3O)C2O)C(O)C(O)C1O (stereo not given in full) | 22.4 µM (inactive) | 14.9 µM (inactive) | 17 µM (inactive) | 12.2 µM (inactive) | 12.8 µM (inactive) | 14.9 µM (inactive) | 15.5 µM (inactive) | 19.8 µM (inactive) | 18.8 µM (inactive) | 18.8 µM (inactive) | 17.2 µM (inactive) |  | 17.1 µM (inactive) | 31.2 µM (inactive) | 11 µM (inactive) | 19.7 µM | 18.4 µM (inactive) | 16.4 µM (inactive) | 18.3 µM (inactive) | 12.1 µM (inactive) |
| COc1ccc(/C=C/C(=O)CCN2CCN(CCC(=O)/C=C/c3ccc(OC)cc3)CC2)cc1 | 18.6 µM (inactive) | 22.8 µM (inactive) | 20.8 µM (inactive) | 17.9 µM (inactive) | 14.5 µM (inactive) | 15.6 µM (inactive) | 6.87 µM (inactive) | 19.4 µM (inactive) | 10.7 µM (inactive) | 14.9 µM (inactive) | 10.4 µM (inactive) | 4.61 µM (inactive) | 2.54 µM (inactive) | 5.22 µM (inactive) | 12.9 µM (inactive) | 8.53 µM | 6.17 µM (inactive) | 43.6 µM (inactive) |  | 4.25 µM (inactive) |
| O=C(O)Cc1cc(O)c(CC(=O)O)cc1O | > 100 µM (inactive) | > 100 µM (inactive) | > 100 µM (inactive) | > 100 µM (inactive) | > 100 µM (inactive) | > 100 µM (inactive) | > 100 µM (inactive) | > 100 µM (inactive) | > 100 µM (inactive) | > 100 µM (inactive) | > 100 µM (inactive) | > 100 µM (inactive) | > 100 µM (inactive) | > 100 µM (inactive) | > 100 µM (inactive) | > 100 µM |  | > 100 µM (inactive) |  | > 100 µM (inactive) |
